According to patent US20250059159A1, “PLPRO INHIBITORS” (SHANGHAI SYNERGY PHARMACEUTICAL SCIENCES CO., LTD., priority 2021, published 2025):

molecular target: SARS-CoV-2 PLpro (Severe acute respiratory syndrome coronavirus 2 (2019-nCoV) (SARS-CoV-2), UniProt P0DTD1); assay: PLpro enzymatic inhibition assay (IC50 value determination); type: biochemical; details: 60 min preincubation for covalent inhibitors, 10 min for non-covalent, read-out: Inhibition of SARS-CoV-2 PLpro IC50 range

Compound | IC50 [nM]
C[C@H](c1cccc2ccccc12)N1CCC(N(CC(=O)NCC(=O)NCC=O)S(C)(=O)=O)CC1 [Compound 64, (R)-2-(N-(1-(1-(naphthalen-1-yl)ethyl)piperidin-4-yl)methylsulfonamido)-N-(2-oxo-2-((2-oxoethyl)amino)ethyl)acetamide] | < 100
COC(=O)/C=C/CNC(=O)CNC(=O)CN(/C=C/C(=O)C(F)(F)F)C1CCN([C@H](C)c2cccc3ccccc23)CC1 [Compound 67, methyl (E)-4-(2-(2-((1-((R)-1-(naphthalen-1-yl)ethyl)piperidin-4-yl)((E)-4,4,4-trifluoro-3-oxobut-1-en-1-yl)amino)acetamido)acetamido)but-2-enoate] | < 100
C#CCNC(=O)CCC(=O)CN(C1CCN([C@H](C)c2cccc3ccccc23)CC1)S(C)(=O)=O [Compound 81, (R)-5-(N-(1-(1-(naphthalen-1-yl)ethyl)piperidin-4-yl)methylsulfonamido)-4-oxo-N-(prop-2-yn-1-yl)pentanamide] | 1000 to 10000
C#CCNC(=O)CNC(=O)CN(C1CCN(C(C)c2cccc3cccnc23)CC1)S(C)(=O)=O (stereo not shown) [Compound 82, N-(2-oxo-2-(prop-2-yn-1-ylamino)ethyl)-2-(N-(1-(1-(quinolin-8-yl)ethyl)piperidin-4-yl)methylsulfonamido)acetamide] | 100 to 1000
C#CCNC(=O)CNC(=O)CN(C1CCN(C(C)c2c(F)ccc3ccccc23)CC1)S(C)(=O)=O (stereo not shown) [Compound 83, 2-(N-(1-(1-(2-fluoronaphthalen-1-yl)ethyl)piperidin-4-yl)methylsulfonamido)-N-(2-oxo-2-(prop-2-yn-1-ylamino)ethyl)acetamide] | 100 to 1000
C#CCNC(=O)CNC(=O)CN(C1CCN(C(C)c2cccc3ccc(Cl)cc23)CC1)S(C)(=O)=O (stereo not shown) [Compound 84, 2-(N-(1-(1-(7-chloronaphthalen-1-yl)ethyl)piperidin-4-yl)methylsulfonamido)-N-(2-oxo-2-(prop-2-yn-1-ylamino)ethyl)acetamide] | < 100
C#CCNC(=O)CNC(=O)CN(C1CCN(C(C)c2ccnc3ccccc23)CC1)S(C)(=O)=O (stereo not shown) [Compound 85, N-(2-oxo-2-(prop-2-yn-1-ylamino)ethyl)-2-(N-(1-(1-(quinolin-4-yl)ethyl)piperidin-4-yl)methylsulfonamido)acetamide] | 100 to 1000
C#CCNC(=O)CNC(=O)CN(C1CCN([C@@H](C)c2cccc3ccccc23)CC1)S(C)(=O)=O [Compound 89, (S)-2-(N-(1-(1-(naphthalen-1-yl)ethyl)piperidin-4-yl)methylsulfonamido)-N-(2-oxo-2-(prop-2-yn-1-ylamino)ethyl)acetamide] | < 100
C#CCNC(=O)CNC(=O)CN(C1CCN([C@@H](C)c2cccc3ccccc23)CC1)S(=O)(=O)C1CC1 [Compound 90, (S)-2-(N-(1-(1-(naphthalen-1-yl)ethyl)piperidin-4-yl)cyclopropanesulfonamido)-N-(2-oxo-2-(prop-2-yn-1-ylamino)ethyl)acetamide] | < 100
C#CCNC(=O)CNC(=O)CN(C1CCN([C@@H](C)c2cccc3ccccc23)CC1)S(=O)(=O)N1CCCC1 [Compound 91, (S)-2-(N-(1-(1-(naphthalen-1-yl)ethyl)piperidin-4-yl)pyrrolidine-1-sulfonamido)-N-(2-oxo-2-(prop-2-yn-1-ylamino)ethyl)acetamide] | < 100
C#CCNC(=O)CNC(=O)[C@@H]1CNS(=O)(=O)N1C1CCN([C@H](C)c2cccc3ccccc23)CC1 [Compound 92, (S)-2-(1-((R)-1-(naphthalen-1-yl)ethyl)piperidin-4-yl)-N-(2-oxo-2-(prop-2-yn-1-ylamino)ethyl)-1,2,5-thiadiazolidine-3-carboxamide 1,1-dioxide 2,2,2-trifluoroacetate] | 1000 to 10000
C#CCNC(=O)CNC(=O)CN(C1CCN([C@H](C)c2cccc3ccccc23)CC1F)S(C)(=O)=O (stereo partly drawn) [Compound 93, 2-(N-(3-fluoro-1-((R)-1-(naphthalen-1-yl)ethyl)piperidin-4-yl)methylsulfonamido)-N-(2-oxo-2-(prop-2-yn-1-ylamino)ethyl)acetamide] | 100 to 1000
C#CCNC(=O)CNC(=O)CN(C1CCN(C(C)c2cccc(Cl)c2Cl)CC1)S(C)(=O)=O (stereo not shown) [Compound 94, 2-(N-(1-(1-(2,3-dichlorophenyl)ethyl)piperidin-4-yl)methylsulfonamido)-N-(2-oxo-2-(prop-2-yn-1-ylamino)ethyl)acetamide] | 100 to 1000
C#CCNC(=O)CNC(=O)CN(C1CCN(C(C)c2ccc(OC)c3ccccc23)CC1)S(C)(=O)=O (stereo not shown) [Compound 96, 2-(N-(1-(1-(4-methoxynaphthalen-1-yl)ethyl)piperidin-4-yl)methylsulfonamido)-N-(2-oxo-2-(prop-2-yn-1-ylamino)ethyl)acetamide] | < 100
C#CCNC(=O)CNC(=O)CN(C1CCN(C(C)c2cccc3ccccc23)CC1)S(C)(=O)=O (stereo not shown) [Compound 97, 2-(N-(1-(1-(naphthalen-1-yl)ethyl)piperidin-4-yl)methylsulfonamido)-N-(2-oxo-2-(prop-2-yn-1-ylamino)ethyl)acetamide] | < 100
C#CCNC(=O)CNC(=O)CN(C1CCN(C(C)c2cccc3ccccc23)CC1)S(=O)(=O)N1CCCC1 (stereo not shown) [Compound 98, 2-(N-(1-(1-(naphthalen-1-yl)ethyl)piperidin-4-yl)pyrrolidine-1-sulfonamido)-N-(2-oxo-2-(prop-2-yn-1-ylamino)ethyl)acetamide] | < 100

Compound | IC50 [nM]
C#CCNC(=O)CNC(=O)CN(C1CCN(C(C)c2cccc(C)c2C)CC1)S(C)(=O)=O (stereo not shown) [Compound 99, 2-(N-(1-(1-(2,3-dimethylphenyl)ethyl)piperidin-4-yl)methylsulfonamido)-N-(2-oxo-2-(prop-2-yn-1-ylamino)ethyl)acetamide] | < 100
C#CCNC(=O)CNC(=O)CN(C1CCN(C(c2cccc3ccccc23)C(F)(F)F)CC1)S(C)(=O)=O (stereo not shown) [Compound 100, N-(2-oxo-2-(prop-2-yn-1-ylamino)ethyl)-2-(N-(1-(2,2,2-trifluoro-1-(naphthalen-1-yl)ethyl)piperidin-4-yl)methylsulfonamido)acetamide] | 100 to 1000
C#CCNC(=O)CNC(=O)CN(C1CCN(C(C)c2ccccc2Cl)CC1)S(C)(=O)=O (stereo not shown) [Compound 101, 2-(N-(1-(1-(2-chlorophenyl)ethyl)piperidin-4-yl)methylsulfonamido)-N-(2-oxo-2-(prop-2-yn-1-ylamino)ethyl)acetamide] | < 100
C#CCNC(=O)CNC(=O)CN(C1CCN(C(C)c2ccccc2C(F)(F)F)CC1)S(C)(=O)=O (stereo not shown) [Compound 102, N-(2-oxo-2-(prop-2-yn-1-ylamino)ethyl)-2-(N-(1-(1-(2-(trifluoromethyl)phenyl)ethyl)piperidin-4-yl)methylsulfonamido)acetamide] | 100 to 1000
C#CCNC(=O)CNC(=O)CN(C1CCN(C(CC)c2cccc3ccccc23)CC1)S(C)(=O)=O (stereo not shown) [Compound 103, 2-(N-(1-(1-(naphthalen-1-yl)propyl)piperidin-4-yl)methylsulfonamido)-N-(2-oxo-2-(prop-2-yn-1-ylamino)ethyl)acetamide] | 100 to 1000
C#CCNC(=O)CNC(=O)CN(C1CCN(C2(c3cccc4ccccc34)CC2)CC1)S(C)(=O)=O [Compound 105, 2-(N-(1-(1-(naphthalen-1-yl)cyclopropyl)piperidin-4-yl)methylsulfonamido)-N-(2-oxo-2-(prop-2-yn-1-ylamino)ethyl)acetamide] | 1000 to 10000
C#CCNC(=O)CNC(=O)CN(C1CCN(C(C)c2cccc(Br)c2)CC1)S(C)(=O)=O (stereo not shown) [Compound 108, 2-(N-(1-(1-(3-bromophenyl)ethyl)piperidin-4-yl)methylsulfonamido)-N-(2-oxo-2-(prop-2-yn-1-ylamino)ethyl)acetamide] | 100 to 1000
C#CCNC(=O)CNC(=O)CN(C1CCN(C(C)c2ccc3ccccc3c2)CC1)S(C)(=O)=O (stereo not shown) [Compound 110, 2-(N-(1-(1-(naphthalen-2-yl)ethyl)piperidin-4-yl)methylsulfonamido)-N-(2-oxo-2-(prop-2-yn-1-ylamino)ethyl)acetamide] | < 100
C#CCNC(=O)CNC(=O)CN(C1CCN(C(C)c2nccc3ccccc23)CC1)S(C)(=O)=O (stereo not shown) [Compound 111, 2-(N-(1-(1-(isoquinolin-1-yl)ethyl)piperidin-4-yl)methylsulfonamido)-N-(2-oxo-2-(prop-2-yn-1-ylamino)ethyl)acetamide] | 100 to 1000
C#CCNC(=O)CNC(=O)CN(C1CCN(C(C)c2cccc(-c3ccccc3)c2)CC1)S(C)(=O)=O (stereo not shown) [Compound 112, 2-(N-(1-(1-([1,1′-biphenyl]-3-yl)ethyl)piperidin-4-yl)methylsulfonamido)-N-(2-oxo-2-(prop-2-yn-1-ylamino)ethyl)acetamide] | 100 to 1000
C#CCNC(=O)CNC(=O)CN(C1CCN(C(C)c2ccccc2-c2ccccc2)CC1)S(C)(=O)=O (stereo not shown) [Compound 113, 2-(N-(1-(1-([1,1′-biphenyl]-2-yl)ethyl)piperidin-4-yl)methylsulfonamido)-N-(2-oxo-2-(prop-2-yn-1-ylamino)ethyl)acetamide] | 100 to 1000
CC(c1cccc2ccccc12)N1CCC(N(CC(=O)NCC(=O)NCC#N)S(C)(=O)=O)CC1 (stereo not shown) [Compound 114, N-(cyanomethyl)-2-(2-(N-(1-(1-(naphthalen-1-yl)ethyl)piperidin-4-yl)methylsulfonamido)acetamido)acetamide] | 1000 to 10000
C#CCNC(=O)CNC(=O)CN(C1CCN(C(C)c2cccc3ccccc23)CC1)S(=O)(=O)N1CCN(CC(=O)OCC)CC1 (stereo not shown) [Compound 115, ethyl 2-(4-(N-(1-(1-(naphthalen-1-yl)ethyl)piperidin-4-yl)-N-(2-oxo-2-((2-oxo-2-(prop-2-yn-1-ylamino)ethyl)amino)ethyl)sulfamoyl)piperazin-1-yl)acetate] | < 100
C#CCNC(=O)CNC(=O)CN(C1CCN(C(C)c2cccc3ccccc23)CC1)S(=O)(=O)N1CCN(CC(=O)O)CC1 (stereo not shown) [Compound 117] | 1000 to 10000
C#CCNC(=O)CNC(=O)CN(C(=O)CCC(=O)O)C1CCN(C(C)c2cccc3ccccc23)CC1 (stereo not shown) [Compound 118, 4-((1-(1-(naphthalen-1-yl)ethyl)piperidin-4-yl)(2-oxo-2-((2-oxo-2-(prop-2-yn-1-ylamino)ethyl)amino)ethyl)amino)-4-oxobutanoic acid] | 1000 to 10000
